In patent US12570697B2, “Cyclic peptide useful in the treatment of cancer” (Syntherix Limited, priority 2019, dated 2026):
Square brackets hold non-standard residues; d marks the D form. Ends that are not written are not given here. Sar = CNCC(=O)O

What was measured:
[1] = test system: human non-small cell lung cancer cells (NCIH-460); experiment: killing of NCIH-460 cells by CLIPS-cyclised peptides of different warhead length (Table 1); assay type: cell-based
Method: The inventor undertook testing of the effect of various peptides which were cyclised using CLIPS technology on the killing of human non-small cell lung cancer cells (NCIH-460) in vitro. For each of the peptides, between two and four isomer fractions were received, giving a total of 12 peptide entities tested.
The following warhead lengths, obtained by adding flanking sarcosine residues, were tested: […]

NCI-H460 cells [2] = experiment: viability assay of CLIP cyclised peptides on NCI-H460 cells (Example 3, Table 2); assay type: cell-based, human; settings: for cytotoxic activity against NCIH460 cells (in words): with and without Nanocin-PRO
Method: (§1) The following protocol was used: • 1) NCI-H460 cells were grown in Ham's F12 media supplemented with 10% FBS. • 2) Cells were harvested and seeded into 96-well plates at 500 cells per well. • 3) Peptides were diluted 1:2 from DMSO stock solutions to generate a 9-point dose range from a top concentration of 300 μM. Final DMSO concentration was constant at 1% (v/v). • 4) In line with the supplied Nanocin-PRO protocol, diluted peptides were incubated with Nanocin-PRO in media for 20 minutes prior to addition to cells. Nanocin-PRO was used at a final assay concentration of 0.2 μl per well. • 5) Cells were grown in the presence of peptide for 96 hours at 37° C., 5% CO2 in a humidified atmosphere. • 6) After 96 h, Alamar blue 10% (v/v) was added, incubated for a further 4 h and fluorescent product detected using a BMG FLUOstar plate reader. • 7) Media only background readings were subtracted before data was analysed using a 4-parameter logistic equation in GraphPad Prism.
Viability assays of the CLIP cyclised peptides were performed to examine the effect of four HILRa clipped peptides on the viability of NCIH460 cells (up to three isomers for each of the peptides). […] Results for HILRa 16A, 16B, 16C and HILRa 17A, 17B and 17C are depicted in FIG. 2.
Assays were performed in the presence and absence of the peptide transfection reagent Nanocin-PRO.

NCI-H460 cells [3] = experiment: NCI-H460 cell viability assay, glycosylated versus unglycosylated peptide (Example 4); assay type: cell-based, human; settings: 0.2 μl Nanocin-Pro per well
Method: The inventor next undertook testing to determine whether the cytotoxicity of the peptides of the invention could be increased by glycosylation of the peptides. NCI-H460 cell viability assays were performed to compare the effect of a glycosylated clipped peptide (HILRa-Glu-01) versus the un-glycosylated version (HILRa-CL-17, HILRa-CL-17 was used in this study as a 1:1:1 mix of the three isomers HILRa-CL-17A, HILRa-CL-17B and HILRa-CL-17C).
Assays were performed in the presence and absence of the peptide transfection agent Nanocin-Pro.
as §1, with “HILRa peptides” for “Peptides”, “[…] Nanocin-Pro” for “Final DMSO concentration was constant at 1% (v/v). • 4) In line with the supplied Nanocin-PRO protocol, diluted peptides were incubated with Nanocin-PRO in media for 20 minutes prior to addition to cells. Nanocin-PRO”

[4] = test system: H460 human non-small cell lung cancer cell lines; settings: cited from earlier work
[5] = test system: RT112 bladder cancer cell line; settings: WO 2016/020437; cited from earlier work
MRC-5 cells = settings: in vitro; WO 2016/020437; cited from earlier work

Molecule `CC(=O)O[C@H]1C(=O)[C@@]2(C)[C@H]([C@H](OC(=O)c3ccccc3)[C@]3(O)C[C@H](OC(=O)[C@H](O)[C@@H](NC(=O)c4ccccc4)c4ccccc4)C(C)=C1C3(C)C)[C@]1(OC(C)=O)CO[C@@H]1C[C@@H]2O` [Paclitaxel, reference compound] has an IC50 ([1]; Homo sapiens, NCI-H460, Paclitaxel control, printed in the 0.2 μl Nanocin-PRO per well column) of 0.0074 µM and an IC50 (NCI-H460 cells [2]; Homo sapiens, NCI-H460, Paclitaxel control, No Nanocin-PRO column) of 0.00495 µM.

For “Ac-C[Dac]R[Sar][Nap]R[Nap]C-NH2 [HILRa-CL-17]”, the “cytotoxic activity against NCIH460 cells (in words)” value (NCI-H460 cells [2]) was “greater potency than HILRa-CL-15”, the “cytotoxic activity against NCIH460 cells (in words)” value (NCI-H460 cells [2]; listed as HILRa-CL17) was “showed activity” and the “activity in the presence of Nanocin-PRO compared to its absence” value (NCI-H460 cells [3]) was “much higher activity”.

In the case of “Ac-C[Sar][Sar]PRGPKP[Sar][Sar]C-NH2 (cysteine pairing not given here) [HILRa-CL-09]”, the “% inhibition at 1 mM” value ([1]; 0.2 μl Nanocin-PRO per well) is reported as 3.0% and the “% inhibition at 1 mM” value ([1]; No Nanocin-PRO) is reported as 1.1%.

In the case of “Ac-C[Sar][Sar]PRGPRP[Sar][Sar]C-NH2 (CXXPRGPRPXXC; N-acetyl; C-amide; sarcosines; HILRa-CL-03 Synthesized; Sar (2)..(2) X = Sarcosine; Sar (3)..(3) X = Sarcosine; Sar (10)..(10) X = Sarcosine; Sar (11)..(11) X = Sarcosine)”, the “% inhibition at 1 mM” value ([1]; 0.2 μl Nanocin-PRO per well) is reported as 9.5% and the “% inhibition at 1 mM” value ([1]; No Nanocin-PRO) is reported as 0.0%.

In the case of PRGPRPVALKLALKLAL [HILR-001], the IC50 ([4]; as described in WO 2009/112536) is given as 200 µM and the “killing of H460 cells versus primary diploid human fibroblasts, keratinocytes or MRC5 cells” value ([4]; in vitro, WO 2009/112536) is given as “selective killing”.

In the case of PRGPRPVWWRRWWRRWW [HILR-PRO-25], the IC50 [5] is given as 10 µM and the “lethality in MRC-5 cells” value (MRC-5 cells) is given as “without lethality”.
